System: adult F. hepatica
Assay: In vitro test on adult F. hepatica (viability scale, effective concentration)
Set-up: species or system Fasciola hepatica
Settings: Fasciola hepatica, 72 h, read-out: Effective in vitro concentration
Procedure: Representative compounds of formula (I), formula (II), and formula (III) were tested in vitro against F. hepatica as follows. Adult F. hepatica (fluke) were collected from infected bovine livers obtained from a local abattoir (Basel, Switzerland). The worms were quickly washed with 0.9% (w/v) NaCl and placed in 6 or 12-well plates (Costar). Culture medium in each well contained RPMI 1640 (Gibco) at 37° C., which was supplemented with antibiotics (50 μg/ml streptomycin and 50 IU/ml penicillin; Gibco) and 80 μg/ml of a haemin solution. The haemin solution was prepared as follows: 5 mg haemin was dissolved in 1 ml of 0.1M aqueous solution of NaOH, and 3.95 ml of PBS (pH=7.4) and 0.05 ml of 1M HCl were added to adjust the pH to 7.1-7.4 (Keiser and Morson, 2008). Cultures were kept at 37° C. in an atmosphere of 5% CO2. To monitor the temporal effects of test compounds in vitro, 3 flukes were incubated for 72 h in the presence of 50 or 100 μg/ml of each test compound. At 24, 48, and 72 h, worms were examined using a dissecting microscope. For the adult worms, a viability scale ranging from 4 (normal movements) to 1 (death; no movement observed for two min using a microscope) was used.
(§1) Table 1 lists representative compounds of formula (I) of the present invention and their effective in vitro concentrations against F. hepatica. All compounds were tested in vitro on the adult stage of F. hepatica as described above. Each data point refers to at least two independent experiments. For Table 1, R2 is H, R4 is Cl and R5 is H.
as §1, with “2” for “1”, “(II)” for “(I)”, “2 compounds, the 2-position of the benzimidazole ring” for “1, R2”, “methylthio, R6” for “H, R4”, “H” for “Cl”, “R9” for “R5”
as §1, with “3” for “1”, “(III)” for “(I)”, “3, the 2-position of the benzimidazole ring” for “1, R2”, “trifluoromethylthio, R10” for “H, R4”, “H” for “Cl”, “R13” for “R5”

Row | Compound | minimal effective concentration [µg/mL]
1 | FC(F)(F)Sc1nc2cc(Cl)c(-c3ccc(Cl)cc3)cc2[nH]1 [Compound 102, 6-chloro-5-(4-chlorophenyl)-2-trifluoromethylthiobenzimidazole] | 5
2 | FC(F)(F)Sc1nc2cc(Cl)c(-c3cccc(Cl)c3)cc2[nH]1 [Compound 103, 6-chloro-5-(3-chlorophenyl)-2-trifluoromethylthiobenzimidazole] | 5
3 | FC(F)(F)c1nc2cc(Cl)c(-c3cc(Cl)cc(Cl)c3)cc2[nH]1 [Compound 247, 6-chloro-5-(3,5-dichlorophenyl)-2-trifluoromethylbenzimidazole] | 5
4 | FC(F)(F)c1nc2cc(Cl)c(-c3cc(Cl)cc(Cl)c3Cl)cc2[nH]1 [Compound 261, 6-chloro-5-(2,3,5-trichlorophenyl)-2-trifluoromethylbenzimidazole] | 5
5 | Fc1ccc(Oc2cc3[nH]c(C(F)(F)C(F)(F)C(F)(F)F)nc3cc2Cl)c(F)c1 [Compound 279, 5-chloro-6-(2,4-difluorophenoxy)-2-(heptafluoropropyl)-1H-1,3-benzodiazole] | < 5
6 | Fc1ccc(Oc2cc3[nH]c(C(F)(F)C(F)(F)C(F)(F)F)nc3cc2Cl)cc1 [Compound 284, 5-chloro-6-(4-fluorophenoxy)-2-(heptafluoropropyl)-1H-1,3-benzodiazole] | 5

Same assay, conditions: Fasciola hepatica; Table 1, formula (I); adult flukes incubated up to 72 h; at least two independent experiments; read-out: Effective in vitro concentration

Row | Compound | minimal effective concentration [µg/mL]
7 | FC(F)(F)c1nc2cc(Cl)c(-c3ccc(Cl)c(Cl)c3)cc2[nH]1 [Compound 258, 6-chloro-5-(3,4-dichlorophenyl)-2-trifluoromethylbenzimidazole] | 5
8 | FC(F)(F)c1nc2cc(Cl)c(-c3ccc(Cl)cc3Cl)cc2[nH]1 [Compound 260, 6-chloro-5-(2,4-dichlorophenyl)-2-trifluoromethylbenzimidazole] | 5
9 | FC(F)(F)C(F)(F)c1nc2cc(Cl)c(-c3cccc(Cl)c3Cl)cc2[nH]1 [Compound 262-100, 5-chloro-6-(2,3-dichlorophenyl)-2-(pentafluoroethyl)-1H-1,3-benzodiazole] | 10
10 | FC(F)(F)c1nc2cc(Cl)c(Oc3ccc(Cl)cc3Cl)cc2[nH]1 [Compound 275, 5-chloro-6-(2,4-dichlorophenoxy)-2-(trifluoromethyl)-1H-1,3-benzodiazole] | 10
11 | FC(F)(F)C(F)(F)c1nc2cc(Cl)c(Oc3ccc(Cl)cc3Cl)cc2[nH]1 [Compound 276, 5-chloro-6-(2,4-dichlorophenoxy)-2-(pentafluoroethyl)-1H-1,3-benzodiazole] | < 5
12 | Fc1ccc(Oc2cc3[nH]c(C(F)(F)F)nc3cc2Cl)c(F)c1 [Compound 277, 5-chloro-6-(2,4-difluorophenoxy)-2-(trifluoromethyl)-1H-1,3-benzodiazole] | 10
13 | Fc1ccc(Oc2cc3[nH]c(C(F)(F)C(F)(F)F)nc3cc2Cl)c(F)c1 [Compound 278, 5-chloro-6-(2,4-difluorophenoxy)-2-(pentafluoroethyl)-1H-1,3-benzodiazole] | < 5
14 | Fc1ccc(-c2cc3[nH]c(C(F)(F)F)nc3cc2Cl)cc1 [Compound 280, 5-chloro-6-(4-fluorophenyl)-2-(trifluoromethyl)-1H-1,3-benzodiazole] | 20
15 | Fc1ccc(-c2cc3[nH]c(C(F)(F)C(F)(F)F)nc3cc2Cl)cc1 [Compound 281, 5-chloro-6-(4-fluorophenyl)-2-(pentafluoroethyl)-1H-1,3-benzodiazole] | 5
16 | Fc1ccc(Oc2cc3[nH]c(C(F)(F)C(F)(F)F)nc3cc2Cl)cc1 [Compound 283, 5-chloro-6-(4-fluorophenoxy)-2-(pentafluoroethyl)-1H-1,3-benzodiazole] | < 2.5
17 | FC(F)(F)c1ccc(Oc2cc3[nH]c(C(F)(F)F)nc3cc2Cl)cc1 [Compound 286, 5-chloro-2-(trifluoromethyl)-6-[4-(trifluoromethyl)phenoxy]-1H-1,3-benzodiazole] | 20
18 | FC(F)(F)c1ccc(Oc2cc3[nH]c(C(F)(F)C(F)(F)F)nc3cc2Cl)cc1 [Compound 287, 5-chloro-2-(pentafluoroethyl)-6-[4-(trifluoromethyl)phenoxy]-1H-1,3-benzodiazole] | 50
19 | FC(F)(F)c1ccc(Oc2cc3[nH]c(C(F)(F)C(F)(F)C(F)(F)F)nc3cc2Cl)cc1 [Compound 288, 5-chloro-2-(heptafluoropropyl)-6-[4-(trifluoromethyl)phenoxy]-1H-1,3-benzodiazole] | 20
20 | FC(F)(F)c1ccc(-c2cc3[nH]c(C(F)(F)C(F)(F)F)nc3cc2Cl)cc1 [Compound 289, 5-chloro-2-(pentafluoroethyl)-6-[4-(trifluoromethyl)phenyl]-1H-1,3-benzodiazole] | < 2.5
21 | FC(F)(F)c1ccc(Oc2cc3[nH]c(C(F)(F)C(F)(F)F)nc3cc2Cl)c(Cl)c1 [Compound 296, 5-chloro-6-[2-chloro-4-(trifluoromethyl)phenoxy]-2-(pentafluoroethyl)-1H-1,3-benzodiazole] | < 2.5
22 | FC(F)(F)c1ccc(-c2cc3[nH]c(C(F)(F)F)nc3cc2Cl)c(C(F)(F)F)c1 [Compound 301, 6-[2,4-bis(trifluoromethyl)phenyl]-5-chloro-2-(trifluoromethyl)-1H-1,3-benzodiazole] | < 10
23 | FC(F)(F)c1ccc(-c2cc3[nH]c(C(F)(F)C(F)(F)F)nc3cc2Cl)c(C(F)(F)F)c1 [Compound 302, 6-[2,4-bis(trifluoromethyl)phenyl]-5-chloro-2-(pentafluoroethyl)-1H-1,3-benzodiazole] | < 2.5
24 | FC(F)(F)c1nc2cc(Cl)c(-c3ccc(Cl)cc3C(F)(F)F)cc2[nH]1 [Compound 304, 5-chloro-6-[4-chloro-2-(trifluoromethyl)phenyl]-2-(trifluoromethyl)-1H-1,3-benzodiazole] | 20
25 | FC(F)(F)c1cc(Cl)ccc1-c1cc2[nH]c(C(F)(F)C(F)(F)F)nc2cc1Cl [Compound 305, 5-chloro-6-[4-chloro-2-(trifluoromethyl)phenyl]-2-(pentafluoroethyl)-1H-1,3-benzodiazole] | 20

Same assay, conditions: Fasciola hepatica; Table 2, formula (II); adult flukes incubated up to 72 h; at least two independent experiments; read-out: Effective in vitro concentration

Row | Compound | minimal effective concentration [µg/mL]
26 | CSc1nc2cc(Cl)c(Oc3ccccc3Br)cc2[nH]1 [Compound 014, 6-chloro-5-(2-bromophenoxy)-2-methylthiobenzimidazole] | 50
27 | CSc1nc2cc(Cl)c(Oc3cccc(C)c3C)cc2[nH]1 [Compound 019, 6-chloro-5-(2,3-dimethylphenoxy)-2-methylthiobenzimidazole] | 20
28 | CCCCCCc1cc2[nH]c(SC)nc2cc1Cl [Compound 024, 6-chloro-5-hexyl-2-methylthiobenzimidazole] | 50

Same assay, conditions: Fasciola hepatica; Table 3, formula (III); adult flukes incubated up to 72 h; at least two independent experiments; read-out: Effective in vitro concentration

Row | Compound | minimal effective concentration [µg/mL]
29 | FC(F)(F)Sc1nc2cc(Cl)c(Oc3cccc(Cl)c3Cl)cc2[nH]1 [Compound 049, 6-chloro-5-(2,3-dichlorophenoxy)-2-trifluoromethylthiobenzimidazole] | 10

Same assay, conditions: Table 3, formula (III); adult flukes incubated up to 72 h; at least two independent experiments

Row | Compound | Effective in vitro concentration [µg/mL]
30 | 6-chloro-5-(2-butyl)-cyclopropyl-2-trifluoromethylthiobenzimidazole [Compound 108] | 10

From US9695129B2, “Parasiticidal compositions comprising benzimidazole derivatives, methods and uses thereof” (MERIAL INC., priority 2012, dated 2017)
